This note sets out measurements from patent US20060002989A1, “Formulations of sumatriptan for absorption across biological membranes, and methods of making and using the same” (priority 2004, published 2006).

The data set relates to pig buccal membrane. The experiment in a line: Trans-buccal absorption across pig buccal epithelial membrane in side-by-side diffusion cells. As to conditions: for Steady-state flux, Fs: pig, 6 h. On the procedure: In a side-by-side diffusion experiment, there exists a reservoir on each side of the test biological membrane. […] The steady state flux of absorption, Fs, is calculated by the formula, Fs=(dQ/dt)/A=(dC/dt)×(V/A), wherein Q is the amount of drug permeated, C is the concentration of the drug, A is the permeation area, V is the chamber volume in a side-by-side diffusion cell, and t is the time period over which the drug permeation is monitored. Fs can be determined from the slope of the line attained from plotting the cumulative amount of drug permeated per unit area as a function of time.
Freshly prepared buccal tissue from pigs was used to prepare the buccal epithelial membrane. A dermatometer was used to obtain the buccal epithelial membrane by separating it from the underlying connective tissue. The buccal membranes were used within 3-4 hours of removal of buccal tissue from the pigs.
The buccal epithelial membrane was mounted between side-by-side diffusion cells. The exposed area of the buccal membrane was approximately 0.64 cm^2. […] The final volume of the liquid in the donor-side was 3.5 ml and the volume in the receptor-side was 3.5 ml.
The diffusion system was maintained at 37° C. throughout the experiment. At predetermined intervals over a period of 6 hours, 150 μl of the solution from the receptor-side was withdrawn for HPLC analysis. The receptor-side was refilled with the same volume (150 μl) of KRB solution.
HPLC analysis of the solution withdrawn from the receptor-side was performed using a Waters 2695 separation module HPLC system equipped with a reverse phase C18 column (150 mm×3.9 mm ID, 5 μm) (Waters Corp., Milford, Mass.). The mobile phase was 88% phosphate buffer (0.05 M NH4H2PO4/H3PO4, pH 3.3) and 12% acetonitrile. […] The software used for HPLC assay data analysis was Millenium 32 (Waters Corp., Milford, Mass.).
Microsoft Excel 2000 was used to calculate the steady state flux value of the absorption of the drug across the buccal membrane. The steady state flux (Fs)=(dQ/dt)/A=(dC/dt)×(V/A), wherein Q is the amount of drug permeated, C is concentration of the drug, A is the permeation area, V is the chamber volume, and t is the time period over which the drug permeation is monitored.
The receptor-side contained 3.5 ml of KRB solution.

Like-named read-outs stand apart in the source and are kept apart here.

Turning to `CCCCCCCCCCCC(=O)O` [lauric acid], the “effect of absorption enhancer on permeation of sumatriptan succinate across the buccal membrane” value is listed as “only minor enhancing effects”.

Turning to `CNS(=O)(=O)Cc1ccc2[nH]cc(CCN(C)C)c2c1.O=C(O)CCC(=O)O` [Salt (SS) alone, sumatriptan succinate, reference compound], the “Steady-state flux, Fs” value (12 mM) was found to be 6.0 ± 6.6 ng/cm^2/min. In the case of `CCCCCCCCCC(=O)[O-].[Na+]` [sodium caprate], the “effect of absorption enhancer on permeation of sumatriptan succinate across the buccal membrane” value was “enhanced the permeation” (result in words) and “most dramatic effect” (result in words, listed as Sodium caprate). On to `CCCCCCCCCCCC(=O)[O-].[Na+]` [sodium laurate], for which the “effect of absorption enhancer on permeation of sumatriptan succinate across the buccal membrane” value (result in words) is recorded as “enhanced the permeation”. Take `CNS(=O)(=O)Cc1ccc2[nH]cc(CCN(C)C)c2c1` [Base alone, 3-[2-(dimethylamino)ethyl]-N-methyl-indole-5-methanesulphonamide, reference compound]: the “effect of absorption enhancers on absorption of sumatriptan base” value is listed as “not significantly enhanced”. Further, the “Steady-state flux, Fs” value (6.8 mM) worked out at 1.6 ± 1.5 ng/cm^2/min. lysolecithin: the “effect of absorption enhancer on permeation of sumatriptan succinate across the buccal membrane” value is given as “only minor enhancing effects”. On the same count and under the same terms, next, `C[C@H](CCC(=O)NCC(=O)[O-])[C@H]1CC[C@H]2[C@@H]3[C@H](O)C[C@@H]4C[C@H](O)CC[C@]4(C)[C@H]3C[C@H](O)[C@]12C.[Na+]` [sodium glycocholate]: “only minor enhancing effects”.

For the compound `CCCCCCCC(=O)[O-].[Na+]` [sodium caprylate], where the note is “result in words”, the “effect of absorption enhancer on permeation of sumatriptan succinate across the buccal membrane” value is on record as “enhanced the permeation”. In the case of `CCCCCCCCCCCCOS(=O)(=O)[O-].[Na+]` [sodium lauryl sulfate (SLS), sodium lauryl sulfate], the “effect of absorption enhancer on permeation of sumatriptan succinate across the buccal membrane” value (result in words) was “enhanced the permeation”.
